# Legend:
# MAS [1] = biological target: T1, MAS (Homo sapiens, UniProt P04201); assay: FLIPR calcium assay, induced myc-tagged WT MAS HEK293 stable cell line; type: cell-based; settings: WT MAS
# T1 construct: expressed in transfected cells
# T1 sequence (P04201 1-325): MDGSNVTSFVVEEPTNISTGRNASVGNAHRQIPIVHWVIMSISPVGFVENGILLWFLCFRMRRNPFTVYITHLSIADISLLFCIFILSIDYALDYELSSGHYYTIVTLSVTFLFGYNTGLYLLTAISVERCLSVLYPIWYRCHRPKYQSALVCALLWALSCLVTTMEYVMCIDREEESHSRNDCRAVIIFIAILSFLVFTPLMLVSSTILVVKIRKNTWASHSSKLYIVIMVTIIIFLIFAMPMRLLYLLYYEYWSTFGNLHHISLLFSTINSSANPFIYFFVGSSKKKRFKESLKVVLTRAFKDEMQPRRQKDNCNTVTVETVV
# Procedure: The assay was performed using FLIPR Calcium 5 assay kit (Molecular Devices, Sunnyvale, CA). For calcium measurements, cells at a density of 125,000 cells/well in 100 µl medium were seeded onto a 96-well clear bottom black cell culture plate that was pre-coated with poly-L-lysine. In the calcium assays the cell density of 125,000 cells/well was consistently maintained to minimize variability between independent experiments. The cells were seeded in induction media to induce MAS expression or in complete media for negative controls. The plate was maintained in a cell culture incubator for 26–28 h. The cells were then serum starved for 2 h by replacing the medium with 100 µl of serum free DMEM. In the case of pre-treatment with pan-inhibitor of G protein signaling, BIM-46187, the cells were initially serum starved for 1 h by replacing the medium with 50 µl of serum free DMEM. After 1 h, 50 µl of BIM-46187 was added to the cells to a final concentration of 25 µM and treated for another 1 h. Following serum starvation, 100 µl of calcium sensitive dye along with 2x (2.5 mM final concentration) probenecid (Life Technologies, Grand Island, NY) was added to the cells. During this step, AR-inverse agonist or BIM-46187 was also added at desired concentrations to the calcium dye preparation in case of experiments where cells were pre-treated with these inhibitors. The cells were maintained for one hour in the cell culture incubator. Following this, the 96-well plate containing cells loaded with calcium dye and a U-bottom 96-well plate containing ligands at 5x the desired final concentration in D-PBS (1.47 mM KH2PO4, 138 mM NaCl, 2.67 mM KCl, 8.1 mM Na2HPO4, pH 7.3) were allowed to equilibrate for 15 min on a FlexStation 3 instrument (Molecular Devices, Sunnyvale, CA) at 37°C. The plates were further equilibrated on the instrument for 5 min with the lids removed from the plates. The instrument was programmed in FLEX mode to add ligands (50 µl at 5x concentration) to the cells and to monitor the fluorescence before and after adding the ligands. In re-stimulation and antagonism assays the instrument is programmed to add 35 µl of first ligand followed by addition of the second ligand (35 µl) after 10 min. […] Therefore, when using 5x ligand stock the maximum AR-agonist concentration that could be tested was 10 µM.
# In the calcium assays, the maximum response and minimum response values in relative fluorescence units (RFU) were extracted by subtracting the corresponding baseline value wherein baseline is defined as the average fluorescence of all time points before addition of ligand.
# The kinetic parameter t1/2 (time taken to reach half of the maximum response) was determined using SoftMax Pro software supplied with the FlexStation 3 instrument (Molecular Devices, Sunnyvale, CA).
# For re-stimulation assays, the data is expressed as the percentage of maximum agonist stimulation to allow for ready comparison between individual experiments. […] For all the assays, the EC50 and IC50 values were estimated by fitting the data to a three parameter dose response using GraphPad Prism software (GraphPad, La Jolla, CA).
# MAS [2] = biological target: T1, MAS; parameters: method as in ref [3] (a number printed in a supplementary file, which may have a reference list of its own: not looked up in the article's list); settings: ref [3]; cited from earlier work
# MAS [3] = biological target: T1, MAS; parameters: method as in ref [4] (a number printed in a supplementary file, which may have a reference list of its own: not looked up in the article's list); settings: ref [4]; cited from earlier work
Compound,"EC50, Calcium assay (MAS [1]; induced cells)","t1/2, Calcium assay (MAS [1]; t1/2 at 1000 µM (1 mM) ligand concentration) [s]",Type (Arachidonic acid release assay) (MAS [2]),Effect in aortic rings (MAS [3])
"CC[C@H](C)[C@H](NC(=O)[C@H](Cc1ccc(O)cc1)NC(=O)[C@@H](N)C(C)C)C(=O)N[C@@H](Cc1cnc[nH]1)C(=O)N1CCC[C@H]1C(=O)N[C@@H](Cc1ccccc1)C(=O)O [AngIV / Ang(3–8), Angiotensin IV]",cbd,10.4 ± 0.3,Agonist,
"Angioprotectin: physiological ligand, sequence PEVYIHPF",,,,Vasodilator effect in aortic rings

# From article PMC4113456, “Atypical Signaling and Functional Desensitization Response of MAS Receptor to Peptide Ligands” (PLoS ONE, 2014)
